Laboratory results published in patent US7998681B2, “Diagnosis and therapy of antibody-mediated inflammatory auto-immune disorders” (Los Angeles Biomedical Research Institute at Harbor-UCLA …, priority 2000, dated 2011).

Legend:
[1] = system: fibroblasts from patients with GD; assay: T lymphocyte migration (chemotaxis) assay of conditioned medium from treated fibroblasts, GD donors; format: cell-based, human; details: IgG 100 ng/ml, IL-1β 10 ng/ml, 24 hours
Protocol: The general migration assay is described in detail in Sciaky, D., et al., “Cultured human fibroblasts express constitutive IL-16 mRNA: Cytokine induction of active IL-16 protein synthesis through a caspase-3-dependent mechanism,” J. Immunol. 164(7):3806-14 (2000), hereby incorporated fully by reference. Briefly, fibroblasts from TAO and normal orbital tissue were seeded in 24-well arrays and grown to confluence. Monolayers were shifted containing 1% FBS to which nothing, purified normal or TAO IgG was added for various time intervals. Medium was collected and stored until use at −80° C. Chemotaxis was examined using Boyden chambers to which NWNA-T lymphocytes were added as the cellular targets. 50 μl cell suspension (10^7 cells/ml) were placed in the upper compartments of 48-well micro-chemotaxis chambers separated from 32 μl of serum samples by 8 μm micropore nitrocellulose filters (Neuroprobe). These were incubated at 37° C. in 5% CO2 environment for 3 hr. Filters were fixed, stained with hematoxylin, dehydrated, mounted on glass slides and viewed by light microscopy. Lymphocyte migration was quantified by counting the total number of cells migrating beyond a fixed depth. This depth was set to routinely identify a baseline migration under control conditions of 10-15 cells per high power field. Five such fields were counted in duplicate for each sample and the means±SD were calculated and expressed as percentage values of baseline cell migration in control buffer alone (100%). For each set of experimental conditions, at least three separate determinations were performed. Differences between experimental groups were analyzed by the Student t test using absolute values obtained for lymphocyte migration and statistical difference was accepted at the 95% level of confidence.
To assess specificity for IL-16, experiments were conducted by incubating samples of culture media for 15 min with neutralizing concentrations of anti-IL-16 MAB (clone 14. 1, 10 μg/ml), which blocks the chemotactic activity of 50 ng/ml of rIL-16. Anti-RANTES MAB (5 μg/ml) having an ND50 of 200 ng/ml rRANTES was used to neutralize RANTES as described in Sciaky D., Brazer, W., Center, D. M., Cruikshank, W. W. and Smith, T. J.: Cultured human fibroblasts express constitutive IL-16 mRNA: Cytokine induction of active IL-16 protein synthesis through a caspase-3-dependent mechanism. J. Immunol. 164(7):3806-14, 2000).
Referring to FIGS. 3A-3C, serum concentrations of IL-16 are elevated in patients with active TAO. Moreover, both IL-16 and PGHS-2 protein can be detected in TAO orbital tissue. The concentration of IL-16 is determined in sera from either patients with Graves' disease or normal controls. The sera are subjected to an ELISA assay, which utilizes an anti-IL-16 specific antibody. IL-16 is detected by standard immunohistochemical techniques in thin sections harvested from affected orbital connective tissues from a patient with severe Graves' ophthalmopathy. In a separate measurement of IL-16 dependent T-cell migration, a panel of 11 different fibroblast strains from patients with Graves' disease and 5 from individuals without known thyroid disease were challenged with Graves' IgG (100 ng/ml), normal IgG (100 ng/ml) or IL-1β (10 ng/ml) for 24 hours and assessed for T cell migration activity and IL-16 production (Table II). Graves' IgG induced IL-16 dependent cell migration in 10 of the Graves' fibroblast strains which derived from orbit and skin from various anatomic regions. Included were strains from the pretibial skin as well as the abdominal wall and the neck. The latter two sites rarely manifest Graves' disease. A substantial fraction of Graves' IgG provoked T cell migration activity in most of these strains was resistant to neutralization with anti-IL-16. Similarly, chemoattractants produced by RA fibroblasts can be measured by T-cell migration. […]

[2] = system: dermal fibroblast strains; assay: Glycosaminoglycan (hyaluronan) synthesis in dermal fibroblasts; format: cell-based, human; details: dermal fibroblast strains from the same donors
Excerpt: Applicants have also recently made a number of directly relevant observations of the disordered accumulation of hyaluronan in TAO. Orbital fibroblasts synthesize less hyaluronan constitutively than do dermal fibroblasts (Smith, T. J., Bahn, R. S. and Gorman, C. A.: Hormonal regulation of hyaluronate synthesis in cultured human fibroblasts: evidence for differences between retroocular and dermal fibroblasts. J. Clin. Endocrinol. Metab. 69:1019-1023, 1989). However, interferon-γ can modestly upregulate hyaluronan synthesis in orbital but not dermal fibroblasts (Smith, T. J., Bahn, R. S., Gorman, C. A. and Cheavens, M.: Stimulation of glycosaminoglycan accumulation by interferon gamma in cultured human retroocular fibroblasts. J. Clin. Endocrinol. Metab. 72:1169-1171, 1991). […] The macromolecular material was sensitive to Streptomyces hyaluronidase digestion, defining it as hyaluronan (Smith, T. J., Wang, H.-S. and Evans, C. H.: Leukoregulin is a potent inducer of hyaluronan synthesis in cultured orbital fibroblasts. Am. J. Physiol. 268:C382-C388, 1995, appended). The increase was substantially greater in magnitude than that observed in dermal fibroblast strains from the same donors (3-fold) and on the basis of pulse-chase studies could be attributed to changes in net synthesis.

IL-1β: pro-inflammatory cytokine used to activate fibroblasts
T Cell Migration (% control) ([1]; strain 1, Orbit): 194 +/− 11 % control
T Cell Migration +anti-IL-16 ([1]; strain 1, Orbit): 149 +/− 8 % control
T Cell Migration +anti-RANTES ([1]; strain 1, Orbit): 167 +/− 10 % control
T Cell Migration (% control) ([1]; strain 2, Orbit): 195 ± 13 % control
T Cell Migration +anti-IL-16 ([1]; strain 2, Orbit): 171 ± 7 % control
T Cell Migration +anti-RANTES ([1]; strain 2, Orbit): 170 ± 8 % control
T Cell Migration (% control) ([1]; strain 3, Abdominal skin): 195 +/− 13 % control
T Cell Migration +anti-IL-16 ([1]; strain 3, Abdominal skin): 171 +/− 7 % control
T Cell Migration +anti-RANTES ([1]; strain 3, Abdominal skin): 171 +/− 8 % control
T Cell Migration (% control) ([1]; strain 4, Orbit): 236 ± 19 % control
T Cell Migration +anti-IL-16 ([1]; strain 4, Orbit): 175 ± 12 % control
T Cell Migration +anti-RANTES ([1]; strain 4, Orbit): 188 ± 9 % control
T Cell Migration (% control) ([1]; strain 5, Abdominal skin): 144 ± 8 % control
T Cell Migration +anti-IL-16 ([1]; strain 5, Abdominal skin): 128 ± 8 % control
T Cell Migration +anti-RANTES ([1]; strain 5, Abdominal skin): 131 ± 5 % control
T Cell Migration (% control) ([1]; strain 6, Neck skin): 211 ± 13 % control
T Cell Migration +anti-IL-16 ([1]; strain 6, Neck skin): 148 ± 10 % control
T Cell Migration +anti-RANTES ([1]; strain 6, Neck skin): 178 ± 12 % control
T Cell Migration (% control) ([1]; strain 7, Pretibial skin): 236 ± 19 % control
T Cell Migration +anti-IL-16 ([1]; strain 7, Pretibial skin): 175 ± 12 % control
T Cell Migration +anti-RANTES ([1]; strain 7, Pretibial skin): 188 ± 9 % control
T Cell Migration (% control) ([1]; strain 8, Pretibial skin): 204 ± 14 % control
T Cell Migration +anti-IL-16 ([1]; strain 8, Pretibial skin): 164 ± 10 % control
T Cell Migration +anti-RANTES ([1]; strain 8, Pretibial skin): 173 ± 8 % control
T Cell Migration (% control) ([1]; strain 9, Orbit): 243 +/− 13 % control
T Cell Migration +anti-IL-16 ([1]; strain 9, Orbit): 167 +/− 11 % control
T Cell Migration +anti-RANTES ([1]; strain 9, Orbit): 189 +/− 10 % control
T Cell Migration (% control) ([1]; strain 10, Orbit): 248 +/− 19 % control
T Cell Migration +anti-IL-16 ([1]; strain 10, Orbit): 189 +/− 14 % control
T Cell Migration +anti-RANTES ([1]; strain 10, Orbit): 206 +/− 12 % control
T Cell Migration (% control) ([1]; strain 11, Orbit): 210 +/− 13 % control
T Cell Migration +anti-IL-16 ([1]; strain 11, Orbit): 162 +/− 11 % control
T Cell Migration +anti-RANTES ([1]; strain 11, Orbit): 183 +/− 6 % control
up-regulation of glycosaminoglycan synthesis [2]: 3 fold
